# Experimental data published in patent publication US20040102454A1, “Phenylahistin and the phenylahistin analogs, a new class of anti-tumor compounds” (priority 1998, published 2004).
# How the values were obtained:
# [1] = test system: P388 murine leukemia cells; experiment: Cytotoxic effects of the phenylahistin enantiomers (Example 8); type: cell-based; settings: Mus musculus, (−) 92.2% e.e., (+) 97.8% e.e.
# Description: The cytotoxic effects of the enantiomers of phenylahistin on P388 murine leukemia cells were examined. […] Judging from the content of (−)-phenylahistin in (+)-phenylahistin, (+)-phenylahistin was considered to have relatively low cytotoxicity to P388 cells.
# A-431 (damal) = experiment: Antiproliferative activity, MTT assay (Table 7); type: cell-based; settings: Homo sapiens, optical purity over 99.8%
# Method: (§1) In order to examine detailed biological activity, especially antitumor activity of both (+)- and (−)-phenylahistin, resolution of (+)- and (−)-phenylahistin using chiral HPLC was conducted. By repeating chiral separation twice or three times, each enantiomer with an optical purity over 99.8% was obtained, and each enantiomer was recrystallizes from ethanol-hexane mixture.
# (§2) Antitumor activity of (+)- and (−)-phenylahistin was examined against seven human cancer cell lines including A431, WiDr, TE-671, Hela, MCF7, A-549 and K562 cells.
# A549 (lung) = experiment: Antiproliferative activity, MTT assay (Table 7); type: cell-based; settings: Homo sapiens, optical purity over 99.8%
# Method: as §1, §2
# Hela (ovary) = experiment: Antiproliferative activity, MTT assay (Table 7); type: cell-based; settings: Homo sapiens, optical purity over 99.8%
# Method: as §1, §2
# K562 (leukemia) = experiment: Antiproliferative activity, MTT assay (Table 7); type: cell-based; settings: Homo sapiens, optical purity over 99.8%
# Method: as §1, §2
# MCF7 (breast) = experiment: Antiproliferative activity, MTT assay (Table 7); type: cell-based; settings: Homo sapiens, optical purity over 99.8%
# Method: as §1, §2
# WiDr (colon) = experiment: Antiproliferative activity, MTT assay (Table 7); type: cell-based; settings: Homo sapiens, optical purity over 99.8%
# Method: as §1, §2
# C. albicans 10231 = experiment: Antifungal susceptibility testing, broth dilution (NCCLS M38-A); type: cell-based, Candida albicans; settings: Candida albicans; C. albicans 10231; 80% reduction in turbidity; read-out: MIC
# Method: (§3) Antifungal susceptibility testing was accomplished according to the methods outlined in the National Committee for Clinical Laboratory Standards, M38-A “Reference Method for Broth Dilution Antifungal Susceptibility Testing of Conidium-Forming Filamentous Fungi; Approved Standard.” This includes testing in RPMI-1640 with glutamine and without bicarbonate, an inoculum size of 0.4-5×10^4, and incubation at 30 or 35° C. for 48 hours. […] Drug concentrations were 0.03-16 μg/ml for the investigational compounds, 0.015-8 μg/ml for itraconazole and griseofulvin.
# (§4) The minimum lethal concentration (MLC) was determined by plating […] from the MIC concentration and each concentration above the MIC. […] When a MIC was obtained, a minimum fungicidal concentration (MFC) was determined to assess the fungistatic/fungicidal nature of the compound. […] The compound is scored as fungistatic if the cells are able to resume growth and fungicidal if no regrowth is possible because the compound had killed the organisms.
# C. albicans 90028 = experiment: as above; type: cell-based, Candida albicans; settings: Candida albicans; C. albicans 90028; 80% reduction in turbidity; read-out: MIC
# Method: as §3, §4
# 38 tumor cell lines = experiment: Human Cancer Cell Line Panel (HCC panel) assay, whole panel; type: cell-based; settings: (−)-PLH content 24.1%, read-out: GI50 values, range over 38 cell lines
# Method: (§5) The antitumor activity of PLH was evaluated by the Human Cancer Cell Line Panel (HCC panel) assay, see Yamori T., Jap. J Cancer Chemother., (1997), 24, 129-35. This HCC panel consists of 38 tumor cell lines including 7 lung cancer, 6 stomach, 6 colon, 5 ovary, 6 central nerve system, 5 breast, 2 kidney and 1 melanoma cell lines. Each tumor cell was seeded in 96-well tissue culture plates and incubated overnight. Various concentrations (5 doses; final 10^−4, 10^−5, 10^−6, 10^−7 and 10^−8 M) of PLH were added, and the cells were incubated for 48 hours. […] All mice were obtained from Japan SLC (Shizuoka, Japan), P388 leukemia cells were obtained from Dainippon Pharmaceuticals Inc. (Osaka, Japan), Lewis Lung Carcinoma from Riken Cell Bank (Tsukuba, Japan), and Colon 26 cells from the National Cancer Center, Japan (Tokyo, Japan).
# HCC2998 = experiment: HCC panel assay, sulforhodamine B; type: cell-based; settings: HCC2998, Colon, (−)-PLH content 24.1%
# Method: as §5
# MKN1 = experiment: HCC panel assay, sulforhodamine B; type: cell-based; settings: MKN1, Stomach, (−)-PLH content 24.1%
# Method: as §5
# NCI-H226 = experiment: HCC panel assay, sulforhodamine B; type: cell-based; settings: NCI-H226, Lung, (−)-PLH content 24.1%
# Method: as §5
# OVCAR-5 = experiment: HCC panel assay, sulforhodamine B; type: cell-based; settings: OVCAR-5, Ovary, (−)-PLH content 24.1%
# Method: as §5
# SF-268 = experiment: HCC panel assay, sulforhodamine B; type: cell-based; settings: SF-268, CNS, (−)-PLH content 24.1%
# Method: as §5
# SF-295 = experiment: HCC panel assay, sulforhodamine B; type: cell-based; settings: SF-295, CNS, (−)-PLH content 24.1%
# Method: as §5
# SNB-75 = experiment: HCC panel assay, sulforhodamine B; type: cell-based; settings: SNB-75, CNS, (−)-PLH content 24.1%
# Method: as §5
# St-4 = experiment: HCC panel assay, sulforhodamine B; type: cell-based; settings: St-4, Stomach, (−)-PLH content 24.1%
# Method: as §5
# [2] = Homo sapiens, read-out: GL50 (the source's name)
# [3] = Homo sapiens, read-out: LC50 (the source's name)
structure (smiles),measurement,setting,value
C=CC(C)(C)c1[nH]cnc1/C=C1\NC(=O)[C@H](Cc2ccccc2)NC1=O [(−)-phenylahistin],IC50,[1],350 nM
same,IC50,A-431 (damal),220 nM
same,IC50,A549 (lung),300 nM
same,IC50,Hela (ovary),200 nM
same,IC50,K562 (leukemia),190 nM
same,IC50,MCF7 (breast),330 nM
same,IC50,WiDr (colon),180 nM
same,MIC,C. albicans 10231,> 70 µg/mL
same,MIC,C. albicans 90028,> 70 µg/mL
"C=CC(C)(C)c1[nH]cnc1/C=C1\NC(=O)[C@H](Cc2ccccc2)NC1=O (racemic) [PLH, phenylahistin]",GI50,38 tumor cell lines,230 to 40000 nM
same,TGI,HCC2998,5300 nM
same,IC50,"HCC2998; Homo sapiens, HCC 2998, read-out: GL50 (the source's name)",1100 nM
same,CC50,"HCC2998; Homo sapiens, HCC 2998, read-out: LC50 (the source's name)",> 100000 nM
same,IC50,"MKN1; Homo sapiens, MKN-1, read-out: GL50 (the source's name)",400 nM
same,CC50,"MKN1; Homo sapiens, MKN-1, read-out: LC50 (the source's name)",> 100000 nM
same,TGI,MKN1,21000 nM
same,IC50,NCI-H226; [2],410 nM
same,CC50,NCI-H226; [3],> 100000 nM
same,TGI,NCI-H226,31000 nM
same,IC50,OVCAR-5; [2],1200 nM
same,CC50,OVCAR-5; [3],> 100000 nM
same,TGI,OVCAR-5,>100000 nM
same,IC50,SF-268; [2],410 nM
same,CC50,SF-268; [3],> 100000 nM
same,TGI,SF-268,>100000 nM
same,IC50,SF-295; [2],320 nM
same,CC50,SF-295; [3],> 100000 nM
same,TGI,SF-295,2400 nM
same,IC50,SNB-75; [2],370 nM
same,CC50,SNB-75; [3],> 100000 nM
same,TGI,SNB-75,>100000 nM
same,IC50,St-4; [2],40000 nM
same,CC50,St-4; [3],> 100000 nM
same,TGI,St-4,>100000 nM
